According to PubChem BioAssay (NCI):
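How tested: cells in 96-well plates exposed to compound for 48 hours at five concentrations. Here, GI50 denotes the concentration required for 50% inhibition of growth. TGI: total growth inhibition.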

How the values were obtained:
Experiment in all cases: growth of human tumour cells (NCI), 48 h
786-0 renal = tested on: 786-0 renal
A498 renal = tested on: A498 renal
A549 NSCLC = tested on: A549 NSCLC
ACHN renal = tested on: ACHN renal
BT-549 breast = tested on: BT-549 breast
CAKI-1 renal = tested on: CAKI-1 renal
CCRF-CEM leukemia = tested on: CCRF-CEM leukemia
COLO 205 colon = tested on: COLO 205 colon
DU-145 prostate = tested on: DU-145 prostate
EKVX NSCLC = tested on: EKVX NSCLC
HCC-2998 colon = tested on: HCC-2998 colon
HCT-116 colon = tested on: HCT-116 colon
HCT-15 colon = tested on: HCT-15 colon
HL-60(TB) leukemia = tested on: HL-60(TB) leukemia
HOP-62 NSCLC = tested on: HOP-62 NSCLC
HOP-92 NSCLC = tested on: HOP-92 NSCLC
HS 578T breast = tested on: HS 578T breast
HT29 colon = tested on: HT29 colon
IGROV1 ovarian = tested on: IGROV1 ovarian
K-562 leukemia = tested on: K-562 leukemia
KM12 colon = tested on: KM12 colon
LOX IMVI melanoma = tested on: LOX IMVI melanoma
M14 melanoma = tested on: M14 melanoma
MALME-3M melanoma = tested on: MALME-3M melanoma
MCF7 breast = tested on: MCF7 breast
MDA-MB-231 breast = tested on: MDA-MB-231 breast
MDA-MB-435 = tested on: MDA-MB-435
MDA-MB-468 breast = tested on: MDA-MB-468 breast
MOLT-4 leukemia = tested on: MOLT-4 leukemia
NCI-H226 lung = tested on: NCI-H226 lung
NCI-H23 lung = tested on: NCI-H23 lung
NCI-H460 lung = tested on: NCI-H460 lung
NCI-H522 lung = tested on: NCI-H522 lung
OVCAR-3 ovarian = tested on: OVCAR-3 ovarian
OVCAR-4 ovarian = tested on: OVCAR-4 ovarian
OVCAR-5 ovarian = tested on: OVCAR-5 ovarian
OVCAR-8 ovarian = tested on: OVCAR-8 ovarian
PC-3 prostate = tested on: PC-3 prostate
RPMI-8226 leukemia = tested on: RPMI-8226 leukemia
RXF 393 renal = tested on: RXF 393 renal
SF-268 CNS = tested on: SF-268 CNS
SF-295 CNS = tested on: SF-295 CNS
SF-539 CNS = tested on: SF-539 CNS
SK-MEL-2 melanoma = tested on: SK-MEL-2 melanoma
SK-MEL-28 melanoma = tested on: SK-MEL-28 melanoma
SK-MEL-5 melanoma = tested on: SK-MEL-5 melanoma
SK-OV-3 ovarian = tested on: SK-OV-3 ovarian
SN12C renal = tested on: SN12C renal
SNB-19 CNS = tested on: SNB-19 CNS
SNB-75 CNS = tested on: SNB-75 CNS
SR leukemia = tested on: SR leukemia
SW-620 colon = tested on: SW-620 colon
T-47D breast = tested on: T-47D breast
TK-10 renal = tested on: TK-10 renal
U251 CNS = tested on: U251 CNS
UACC-257 melanoma = tested on: UACC-257 melanoma
UACC-62 melanoma = tested on: UACC-62 melanoma
UO-31 renal = tested on: UO-31 renal

O=c1cc(-c2ccccc2)oc2cc(OCCCNCc3ccccc3)cc(O)c12
GI50 (786-0 renal): 2.98 µM | TGI (786-0 renal): 15.5 µM | GI50 (A498 renal): 3.94 µM | TGI (A498 renal): 16.9 µM | GI50 (A549 NSCLC): 4.33 µM | TGI (A549 NSCLC): 46.4 µM | GI50 (ACHN renal): 3.42 µM | TGI (ACHN renal): 14.2 µM | GI50 (BT-549 breast): 8.5 µM | TGI (BT-549 breast): 22.2 µM | GI50 (CAKI-1 renal): 2.41 µM | TGI (CAKI-1 renal): 11 µM | GI50 (CCRF-CEM leukemia): 5.29 µM | TGI (CCRF-CEM leukemia): > 100 µM | GI50 (COLO 205 colon): 1.98 µM | TGI (COLO 205 colon): 3.82 µM | GI50 (DU-145 prostate): 7.59 µM | TGI (DU-145 prostate): 20.4 µM | GI50 (EKVX NSCLC): 13.8 µM | TGI (EKVX NSCLC): 36.4 µM | GI50 (HCC-2998 colon): 1.91 µM | TGI (HCC-2998 colon): 3.64 µM | GI50 (HCT-116 colon): 3.72 µM | TGI (HCT-116 colon): 27.7 µM | GI50 (HCT-15 colon): 3.54 µM | TGI (HCT-15 colon): 13.1 µM | GI50 (HL-60(TB) leukemia): 1.89 µM | TGI (HL-60(TB) leukemia): 5.03 µM | GI50 (HOP-62 NSCLC): 11.5 µM | TGI (HOP-62 NSCLC): 44.4 µM | GI50 (HOP-92 NSCLC): 1.56 µM | TGI (HOP-92 NSCLC): 17.1 µM | GI50 (HS 578T breast): 4.08 µM | TGI (HS 578T breast): 33.7 µM | GI50 (HT29 colon): 3.15 µM | TGI (HT29 colon): 27.3 µM | GI50 (IGROV1 ovarian): 3.37 µM | TGI (IGROV1 ovarian): 15.7 µM | GI50 (K-562 leukemia): 3.16 µM | TGI (K-562 leukemia): > 100 µM | GI50 (KM12 colon): 3.77 µM | TGI (KM12 colon): 14.5 µM | GI50 (LOX IMVI melanoma): 1.84 µM | TGI (LOX IMVI melanoma): 3.92 µM | GI50 (M14 melanoma): 2.64 µM | TGI (M14 melanoma): 6.88 µM | GI50 (MALME-3M melanoma): 1.53 µM | TGI (MALME-3M melanoma): 3.2 µM | GI50 (MCF7 breast): 2.61 µM | TGI (MCF7 breast): 10.3 µM | GI50 (MDA-MB-231 breast): 2.89 µM | TGI (MDA-MB-231 breast): 12.9 µM | GI50 (MDA-MB-435): 10.1 µM | TGI (MDA-MB-435): 21.7 µM | GI50 (MDA-MB-468 breast): 2.08 µM | TGI (MDA-MB-468 breast): 5.21 µM | GI50 (MOLT-4 leukemia): 3.53 µM | TGI (MOLT-4 leukemia): > 100 µM | GI50 (NCI-H226 lung): 11.1 µM | TGI (NCI-H226 lung): 41.9 µM | GI50 (NCI-H23 lung): 11.9 µM | TGI (NCI-H23 lung): 26.3 µM | GI50 (NCI-H460 lung): 4.15 µM | TGI (NCI-H460 lung): 20.8 µM | GI50 (NCI-H522 lung): 6.21 µM | TGI (NCI-H522 lung): 26.2 µM | GI50 (OVCAR-3 ovarian): 10 µM | TGI (OVCAR-3 ovarian): 23.7 µM | GI50 (OVCAR-4 ovarian): 2.78 µM | TGI (OVCAR-4 ovarian): 8.84 µM | GI50 (OVCAR-5 ovarian): 10 µM | TGI (OVCAR-5 ovarian): 22.9 µM | GI50 (OVCAR-8 ovarian): 10.2 µM | TGI (OVCAR-8 ovarian): > 100 µM | GI50 (PC-3 prostate): 5.05 µM | TGI (PC-3 prostate): 32.4 µM | GI50 (RPMI-8226 leukemia): 3.46 µM | TGI (RPMI-8226 leukemia): > 100 µM | GI50 (RXF 393 renal): 1.97 µM | TGI (RXF 393 renal): 8.11 µM | GI50 (SF-268 CNS): 4.81 µM | TGI (SF-268 CNS): 30.3 µM | GI50 (SF-295 CNS): 4.72 µM | TGI (SF-295 CNS): 18 µM | GI50 (SF-539 CNS): 5.64 µM | TGI (SF-539 CNS): 18.7 µM | GI50 (SK-MEL-2 melanoma): 6.43 µM | TGI (SK-MEL-2 melanoma): 19.7 µM | GI50 (SK-MEL-28 melanoma): 2.31 µM | TGI (SK-MEL-28 melanoma): 5.39 µM | GI50 (SK-MEL-5 melanoma): 5.04 µM | TGI (SK-MEL-5 melanoma): 16.9 µM | GI50 (SK-OV-3 ovarian): 10.2 µM | TGI (SK-OV-3 ovarian): 22.6 µM | GI50 (SN12C renal): 4.19 µM | TGI (SN12C renal): 24.6 µM | GI50 (SNB-19 CNS): 10.4 µM | TGI (SNB-19 CNS): 31.2 µM | GI50 (SNB-75 CNS): 2.4 µM | TGI (SNB-75 CNS): 16.5 µM | GI50 (SR leukemia): 2.91 µM | TGI (SR leukemia): > 100 µM | GI50 (SW-620 colon): 5.98 µM | TGI (SW-620 colon): 21.1 µM | GI50 (T-47D breast): 2.81 µM | TGI (T-47D breast): 8.68 µM | GI50 (TK-10 renal): 14.8 µM | TGI (TK-10 renal): 28.8 µM | GI50 (U251 CNS): 3.69 µM | TGI (U251 CNS): 19.1 µM | GI50 (UACC-257 melanoma): 2.13 µM | TGI (UACC-257 melanoma): 5.1 µM | GI50 (UACC-62 melanoma): 1.77 µM | TGI (UACC-62 melanoma): 3.49 µM | GI50 (UO-31 renal): 1.15 µM | TGI (UO-31 renal): 8.66 µM
